Experimental data reported in patent US20240067632A1, “WEE1 Degrading Compounds and Uses Thereof” (Bristol-Myers Squibb Company, priority 2022, published 2024).

What was measured:
MKN45 cells = assay: MKN45 cell proliferation assay (Cell-Titer-Glo, 120 h); format: cell-based; conditions: for EC50: Homo sapiens, MKN-45, 120 h, Cell-Titer-Glo, read-out: MKN45 Cell Prolif. 120 hr (EC50); for MKN45 Cell Prolif. 120 hr (Ymin-Obs): minimal percent of DMSO control observed in the concentrations tested
Procedure: MKN45 cells were obtained from Celgene internal cell banks and cultured in RPMI complete media (RPMI-1640, 1× Penicillin/Streptomycin, 1× glutamine, 1× Sodium Pyruvate, Non-essential Amino Acids, 10% Fetal Bovine serum, all component from Thermo-Fisher). Compounds were dispensed into 384-well plates using an HP DE300 compound printer in triplicate with 8 compounds on each plate. For each compound, a 10-point dose response was printed at half-log dilutions starting at either 1 uM or 10 uM. The DMSO concentration was kept constant for a final assay concentration of 0.1% per well assuming 50 ul final media volume. Compound plates were sealed and frozen at −20 C until use.
For each assay batch, compound plates were thawed and allowed to reach room temperature, and cells were seeded at 400 cells per well in 50 ul complete RPMI media. After 120 hours of incubation at 37 C and 5% CO2, cells were lysed by addition of 25 μL of Cell-Titer-Glo Reagent (Promega Corporation, Madison, WI), as per manufacturer's instructions, protected from light, shaken for 45 minutes, and total luminescence read by a Perkin Elmer Envision plate reader. Total luminescence signal is linearly correlated with cell number remaining in the well.
Luminescence data was processed per plate by subtracting reagent-only “blank” well luminescence from all measured values and calculating a percent of DMSO control value for each treatment well. Then, to determine the half-maximal effective concentration (EC50) values for cell growth inhibition, a four parameter logistic model was fit to the data for each DMSO-normalized compound: Sigmoidal Dose-Response Model: (FIT=(A+((B−A)/1+((C/x)^D)))) where C is the inflection point (EC50), D is the Hill slope, and A and B are the low and high limits of the fit respectively. The lower limit of the fit (value A) is referred to as Ymin-calculated. The minimal percent of DMSO control that is observed in the concentrations tested for each compound is labeled as “Ymin-obs”, and was recorded and reported in the tables. Sigmoidal fit curves were processed and evaluated using Activity Base (IDBS, Alameda, CA).

WEE1 = target: T1, WEE1 (Homo sapiens, UniProt P30291+Q96SW2); assay: WEE1-ePL degradation assay (LentiX-WEE1-ePL-GSPT1-ND cells, InCELL Hunter luminescence, 4 h); format: cell-based; conditions: 293T-LentiX WEE1-ePL cells; for DC50: read-out: 293T-LentiX WEE1-ePL Degradation 4 hr (EC50)
T1 construct: C-terminal ePL-tagged (DiscoverX, Fremont, CA) full-length WEE1 expression construct; expressed in transfected cells; host or cells: LentiX-HEK293T (Invitrogen), lentiviral transduction; co-expressing GSPT1-GN (G576N, lacking the first 158 amino acids)
Procedure: To generate LentiX-WEE1-ePL-GSPT1-ND cells for the WEE1 degradation assay, LentiX-HEK293T (Invitrogen) were transduced by lentivirus with a C-terminal ePL-tagged (DiscoverX, Fremont, CA) full-length WEE1 expression construct. […] Cells were selected and maintained in complete DMEM media (DMEM, 10% Heat Inactivated FBS, 400 μg/mL Geneticin, and 1 μg/mL puromycin at 37 C and 5% CO2). Cells were passaged every 3-4 days by reseeding 1×10^6 cells in a T150 flask.
Cells were dispensed into 384-well white plates (Corning #3570, NY) that were pre-spotted with compounds using an acoustic dispenser (Echo acoustic transfer system, Beckman Coulter Life Sciences, Carlsbad, CA) as a 10-point dose-response curve with a 3-fold dilution starting at either 1 uM or 10 uM and including a DMSO control. Twenty-five microliters of media containing 2500 cells for LentiX-oeWEE1-ePL was dispensed per well. Assay plates were incubated at 37° C. with 5% CO2 for four hours (WEE1) After incubation, 25 μL of the InCELL Hunter™ Detection Reagent Working Solution (DiscoverX, Fremont, CA) was added to each well and incubated at room temperature for 30 minutes protected from light. After 30 minutes, luminescence was read on a PHERAstar luminometer (Cary, NC).
To determine the half-maximal effective concentration (EC50) values for WEE1-ePL degradation, a four parameter logistic model was used: (Sigmoidal Dose-Response Model) (FIT=(A+((B−A)/1+((C/x)^D)))) where C is the inflection point (EC50), D is the Hill slope, and A and B are the low and high limits of the fit respectively). The lower limit of the fit (value A) is referred to as Ymin. […] The maximum limit constraint, Ymax, is similarly derived using DMSO control. The curves were processed and evaluated using Activity Base (IDBS, Alameda, CA).

[1] = lower limit of the fit (0 = luciferase inhibitor, Ymax = DMSO control)
[2] = lower limit of the fit (Ymin=0 luciferase inhibitor, Ymax DMSO control)

EC50 (MKN45 cells) | 293T-LentiX WEE1-ePL Degradation 4 hr (Ymin) (WEE1; [1]) | Structure (SMILES) | MKN45 Cell Prolif. 120 hr (Ymin-Obs) (MKN45 cells) | further results
16.6 nM | – | COC[C@@H]1CCC[C@H]1c1ccc2cc(CN3CC[C@H](Oc4ccc5c(c4)CN(C4CCC(=O)NC4=O)C5=O)C3)ccc2n1 (stereo partly drawn) [3-(5-{[(3S)-1-({2-[(1R,2R)-2-(methoxymethyl)cyclopentyl]quinolin-6-yl}methyl)pyrrolidin-3-yl]oxy}-1-oxo-2,3-dihydro-1H-isoindol-2-yl)piperidine-2,6-dione] | 12.33 | –
12.3 nM | – | COC[C@H]1CCC[C@H]1c1ccc2cc(CN3CC[C@H](Oc4ccc5c(c4)CN(C4CCC(=O)NC4=O)C5=O)C3)ccc2n1 (stereo partly drawn) [3-(5-{[(3S)-1-({2-[(1R,2S)-2-(methoxymethyl)cyclopentyl]quinolin-6-yl}methyl)pyrrolidin-3-yl]oxy}-1-oxo-2,3-dihydro-1H-isoindol-2-yl)piperidine-2,6-dione] | 15.33 | –
– | 87.63 | NCc1cccc(COc2ccccc2CN2CC[C@H](Oc3ccc4c(c3)CN(C3CCC(=O)NC3=O)C4=O)C2)c1 (stereo partly drawn) [3-(5-{[(3S)-1-[(2-{[3-(aminomethyl)phenyl]methoxy}phenyl)methyl]pyrrolidin-3-yl]oxy}-1-oxo-2,3-dihydro-1H-isoindol-2-yl)piperidine-2,6-dione] | – | –
– | 88.71 | NCc1ccc(COc2ccccc2CN2CC[C@H](Oc3ccc4c(c3)CN(C3CCC(=O)NC3=O)C4=O)C2)cc1 (stereo partly drawn) [3-(5-{[(3S)-1-[(2-{[4-(aminomethyl)phenyl]methoxy}phenyl)methyl]pyrrolidin-3-yl]oxy}-1-oxo-2,3-dihydro-1H-isoindol-2-yl)piperidine-2,6-dione] | – | –
– | 74.31 | NCc1ccccc1COc1cccc(CN2CC[C@H](Oc3ccc4c(c3)CN(C3CCC(=O)NC3=O)C4=O)C2)c1 (stereo partly drawn) [3-(5-{[(3S)-1-[(3-{[2-(aminomethyl)phenyl]methoxy}phenyl)methyl]pyrrolidin-3-yl]oxy}-1-oxo-2,3-dihydro-1H-isoindol-2-yl)piperidine-2,6-dione] | – | –
– | 81.05 | NCc1cccc(COc2cccc(CN3CC[C@H](Oc4ccc5c(c4)CN(C4CCC(=O)NC4=O)C5=O)C3)c2)c1 (stereo partly drawn) [3-(5-{[(3S)-1-[(3-{[3-(aminomethyl)phenyl]methoxy}phenyl)methyl]pyrrolidin-3-yl]oxy}-1-oxo-2,3-dihydro-1H-isoindol-2-yl)piperidine-2,6-dione] | – | –
– | 87 | NCc1ccc(COc2cccc(CN3CC[C@H](Oc4ccc5c(c4)CN(C4CCC(=O)NC4=O)C5=O)C3)c2)cc1 (stereo partly drawn) [3-(5-{[(3S)-1-[(3-{[4-(aminomethyl)phenyl]methoxy}phenyl)methyl]pyrrolidin-3-yl]oxy}-1-oxo-2,3-dihydro-1H-isoindol-2-yl)piperidine-2,6-dione] | – | –
– | – | O=C1CCC(N2Cc3cc(O[C@H]4CCN(Cc5ccc6nc(C7CCOCC7)ccc6c5)C4=O)ccc3C2=O)C(=O)N1 (stereo partly drawn) [3-(5-{[(3S)-1-{[2-(oxan-4-yl)quinolin-6-yl]methyl}-2-oxopyrrolidin-3-yl]oxy}-1-oxo-2,3-dihydro-1H-isoindol-2-yl)piperidine-2,6-dione] | – | 293T-LentiX WEE1-ePL Degradation 4 hr (Ymin) (WEE1; [2]): 80.98
– | 75.96 | O=C1CCC(N2Cc3cc(O[C@H]4CCN(Cc5cccc(OC(F)F)c5)C4)ccc3C2=O)C(=O)N1 (stereo partly drawn) [3-(5-{[(3S)-1-{[3-(difluoromethoxy)phenyl]methyl}pyrrolidin-3-yl]oxy}-1-oxo-2,3-dihydro-1H-isoindol-2-yl)piperidine-2,6-dione] | – | DC50 (WEE1): 196 nM
– | 80.095 | O=C1CCC(N2Cc3ccc(O[C@H]4CCN(Cc5ccc6cnccc6c5)C4)cc3C2=O)C(=O)N1 (stereo partly drawn) [3-(6-{[(3S)-1-[(isoquinolin-6-yl)methyl]pyrrolidin-3-yl]oxy}-1-oxo-2,3-dihydro-1H-isoindol-2-yl)piperidine-2,6-dione] | – | –
17.8 nM | – | O=C1CC[C@H](N2Cc3cc(O[C@@H]4CN(Cc5ccc6nc(N7CCOCC7)ncc6c5)CC4(F)F)ccc3C2=O)C(=O)N1 [(3S)-3-(5-{[(3R)-4,4-difluoro-1-{[2-(morpholin-4-yl)quinazolin-6-yl]methyl}pyrrolidin-3-yl]oxy}-1-oxo-2,3-dihydro-1H-isoindol-2-yl)piperidine-2,6-dione] | 10.03 | –
– | – | O=C1CC[C@H](N2Cc3cc(O[C@H]4CCN(Cc5ccc6nc(C7CCOCC7)ccc6c5Cl)C4)ccc3C2=O)C(=O)N1 [(3S)-3-(5-{[(3S)-1-{[5-chloro-2-(oxan-4-yl)quinolin-6-yl]methyl}pyrrolidin-3-yl]oxy}-1-oxo-2,3-dihydro-1H-isoindol-2-yl)piperidine-2,6-dione] | – | 293T-LentiX WEE1-ePL Degradation 4 hr (Ymin) (WEE1; [2]): 28.82; DC50 (WEE1): 2.8 nM
– | – | O=C1CC[C@H](N2Cc3cc(O[C@H]4CCN(Cc5ccc6nc(N7CCOCC7)ncc6c5F)C4)ccc3C2=O)C(=O)N1 [(3S)-3-(5-{[(3S)-1-{[5-fluoro-2-(morpholin-4-yl)quinazolin-6-yl]methyl}pyrrolidin-3-yl]oxy}-1-oxo-2,3-dihydro-1H-isoindol-2-yl)piperidine-2,6-dione] | – | 293T-LentiX WEE1-ePL Degradation 4 hr (Ymin) (WEE1; [2]): 32.24; DC50 (WEE1): 3.27 nM
17.1 nM | – | O=C1CC[C@H](N2Cc3cc(O[C@H]4CCN(Cc5ccc6nc(C7CCOCC7)ncc6c5F)C4)ccc3C2=O)C(=O)N1 [(3S)-3-(5-{[(3S)-1-{[5-fluoro-2-(oxan-4-yl)quinazolin-6-yl]methyl}pyrrolidin-3-yl]oxy}-1-oxo-2,3-dihydro-1H-isoindol-2-yl)piperidine-2,6-dione] | 9.88 | –
– | – | O=C1CC[C@H](N2Cc3cc(O[C@H]4CCN(Cc5cc6ccc(C7CCOCC7)nc6cc5F)C4)ccc3C2=O)C(=O)N1 [(3S)-3-(5-{[(3S)-1-{[7-fluoro-2-(oxan-4-yl)quinolin-6-yl]methyl}pyrrolidin-3-yl]oxy}-1-oxo-2,3-dihydro-1H-isoindol-2-yl)piperidine-2,6-dione] | – | 293T-LentiX WEE1-ePL Degradation 4 hr (Ymin) (WEE1; [2]): 29.77; DC50 (WEE1): 5.82 nM
7.19 nM | – | O=C1CC[C@H](N2Cc3cc(O[C@H]4CCN(Cc5cc(F)c6nc(N7CCOCC7)ccc6c5)C4)ccc3C2=O)C(=O)N1 [(3S)-3-(5-{[(3S)-1-{[8-fluoro-2-(morpholin-4-yl)quinolin-6-yl]methyl}pyrrolidin-3-yl]oxy}-1-oxo-2,3-dihydro-1H-isoindol-2-yl)piperidine-2,6-dione] | 12.7 | –
0.728 nM | – | COC[C@@H]1CN(Cc2ccc3nc(C4CCOCC4)ccc3c2)C[C@H]1Oc1ccc2c(c1)CN([C@H]1CCC(=O)NC1=O)C2=O [(3S)-3-(5-{[(3S,4S)-4-(methoxymethyl)-1-{[2-(oxan-4-yl)quinolin-6-yl]methyl}pyrrolidin-3-yl]oxy}-1-oxo-2,3-dihydro-1H-isoindol-2-yl)piperidine-2,6-dione] | 9.194 | –
– | – | C[C@H]1c2cc(O[C@H]3CCN(Cc4ccc5nc(N6CCOCC6)ncc5c4)C3)ccc2C(=O)N1[C@H]1CCC(=O)NC1=O [(3S)-3-[(3S)-3-methyl-5-{[(3S)-1-{[2-(morpholin-4-yl)quinazolin-6-yl]methyl}pyrrolidin-3-yl]oxy}-1-oxo-2,3-dihydro-1H-isoindol-2-yl]piperidine-2,6-dione] | – | 293T-LentiX WEE1-ePL Degradation 4 hr (Ymin) (WEE1; [2]): 37.95; DC50 (WEE1): 1180 nM
